From patent US6492416B1, “4,5-diaryl-3(2H)-furanone derivatives as cyclooxygenase-2 inhibitors” (Pacific Corporation, priority 1999, dated 2002)
Converted amounts (≈) assume the structure as drawn.

Key:
[1] = molecular target: T1, COX-1 (Mus musculus, UniProt P22437); assay: Evaluation of COX-1 activity: PGE2 formation in mouse peritoneal macrophages without aspirin and LPS treatment; assay type: cell-based
T1 sequence (P22437 27-602): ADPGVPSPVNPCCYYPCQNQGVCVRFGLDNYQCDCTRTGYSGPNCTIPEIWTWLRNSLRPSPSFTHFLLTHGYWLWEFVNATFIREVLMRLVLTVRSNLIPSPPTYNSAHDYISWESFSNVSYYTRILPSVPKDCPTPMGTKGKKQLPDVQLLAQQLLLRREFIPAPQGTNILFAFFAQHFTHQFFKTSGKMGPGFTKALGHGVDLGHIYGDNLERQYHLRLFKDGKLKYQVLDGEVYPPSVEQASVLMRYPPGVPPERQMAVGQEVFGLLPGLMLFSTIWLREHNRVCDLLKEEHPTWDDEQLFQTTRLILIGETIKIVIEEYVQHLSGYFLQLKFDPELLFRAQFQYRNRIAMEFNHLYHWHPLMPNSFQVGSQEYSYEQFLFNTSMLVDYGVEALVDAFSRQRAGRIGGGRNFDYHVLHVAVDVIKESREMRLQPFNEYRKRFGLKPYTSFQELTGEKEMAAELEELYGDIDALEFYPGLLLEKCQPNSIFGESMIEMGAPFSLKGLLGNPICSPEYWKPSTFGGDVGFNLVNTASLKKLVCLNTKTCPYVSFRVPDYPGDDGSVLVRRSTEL
Summary of the method: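 Peritoneal macrophages from C57BL/6 mice, without aspirin or LPS treatment, were plated at 1×10^6 cells/ml and fixed 2 h at 37 °C. Cells were preincubated 10 min, then given 10 μM arachidonic acid plus compound for 10 min; PGE2 was measured by RIA or EIA. IC50 came from 4–5 concentrations.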

[2] = tested on: male SD rats; assay: Antiinflammatory potency by adjuvant arthritis (AA); assay type: in vivo; conditions: daily oral dose day 14 to day 22, rat
Procedure: Arthritis was induced in male SD rats weighing 180-200 g by subcutaneous injection of Mycobacterium butyricum mixed in 0.1 ml of incomplete Freund's adjuvanat into the base of the tail. The foot volumes were measured using a displacement plethysomometer 14 days after the injection of the adjuvant. Animals with paw volumes greater than the normal paw volumes (without the adjuvant treatment) by 0.37 ml were selected, and then randomized. A designated daily dose of a compound of this invention, which was suspended in 1% aqueous methylcellulose solution, was administered to the randomized rats with arthritis by oral gavage daily once beginning on day 14 after the injection of the adjuvant. The administration of the compound continued till day 22 after the injection of the adjuvant, and the paw volumes were measured on daily basis using a displacement plethysmometer.
% Inhibition of AA=(1−Δtreated/Δcontrol)×100
wherein Δtreated=[(paw volume at day 22)/(paw volume at day 14)−1] for a drug-administered rat, and Δcontrol=[(paw volume at day 22)/(paw volume at day 14)−1] for a rat without drug administration.
ED50 value was determined b a dose-response curve for each compound.

Row | SMILES | IC50, μg/ml COX-1 [1] [µg/mL] | Adjuvant Arthritis ED50 [2] [mg/kg body weight]
1 | CC1(C)OC(c2ccc(S(C)(=O)=O)cc2)=C(c2cc(F)cc(F)c2)C1=O [Example 11, 4-(3,5-Difluorophenyl)-2,2-dimethyl-5-{4-(methylsulfonyl)phenyl}-3(2H)-furanone] | 20 (≈ 52.9 µM) | 0.03
2 | CC1(C)OC(c2ccc(S(N)(=O)=O)cc2F)=C(c2ccc(F)cc2)C1=O [Example 334] | 3 (≈ 7.91 µM) | 0.09
3 | CC1(C)OC(c2ccc(S(N)(=O)=O)cc2)=C(c2cccc(F)c2)C1=O [Example 129, 5-{4-(aminosulfonyl)phenyl}-2,2-dimethyl-4-(3-fluorophenyl)-3(2H)-furanone] | 1.02 (≈ 2.82 µM) | 0.02
4 | CC1(C)OC(c2ccc(S(N)(=O)=O)cc2)=C(c2cccc(Cl)c2)C1=O [Example 126] | 3.82 (≈ 10.1 µM) | 0.03
5 | CC1(C)OC(c2ccc(S(C)(=O)=O)cc2)=C(c2cccc(F)c2)C1=O [Example 4, 2,2-Dimethyl-4-(3-fluorophenyl)-5-{4-(methylsulfonyl)phenyl}-3(2H)-furanone] | 5 (≈ 13.9 µM) | 0.07
